According to US9481654B2, “Compositions and methods for inhibition of the JAK pathway” (Rigel Pharmaceuticals, Inc., priority 2006, dated 2016):
One block for each compound: values may come before it.

Experiments:
[1] = tested on: IL-4 stimulated CD23 upregulation in human Ramos B cells (JAK-1/JAK-3, Stat-6); test: Assay for Ramos B-Cell Line Stimulated with IL-4 (CD23 upregulation, FACS); assay type: cell-based; conditions: Table III Example 3
Outline: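 Log-phase Ramos B cells (5×10^4 per point, RPMI with 5% serum) pre-incubated with compound or DMSO 1 h at 37° C, then stimulated with IL-4 at 50 units/mL final for 20-24 h. CD23 upregulation measured by staining and flow cytometry.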

[2] = tested on: primary human T-cells (IL-2 induced proliferation, JAK-1/JAK-3, Stat-5); test: Primary Human T-Cell Proliferation Assay Stimulated with IL-2 (CellTiter-Glo); assay type: cell-based; conditions: Table III Example 4
Outline: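 Pre-activated peripheral-blood T-cells (TCR/CD28 stimulated, IL-2-maintained) were IL-2-depleted, then plated in Yssel's medium with 80 U/mL IL-2 in the cell suspension and compound in duplicate. Proliferation ran 72 h at 37 °C; viable cells quantified by CellTiter-Glo ATP luminescence, with IL-2-omitted wells as unstimulated control.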

IC50 ([1]; Homo sapiens, Ramos): 141 nM
Compound: C#CCNS(=O)(=O)Cc1ccc(Nc2nc(Nc3cccc(S(N)(=O)=O)c3)ncc2F)cc1 [Compound I-4, N2-(3-Aminosulfonylphenyl)-5-fluoro-N4-[4-(prop-2-ynylaminosulfonylmethyl)phenyl]-2,4-pyrimidinediamine]
IC50 ([2]; Homo sapiens, T-cell): 109 nM

IC50 ([1]; Homo sapiens, Ramos): 130 nM
Compound: C#CCNS(=O)(=O)Cc1ccc(Nc2nc(Nc3ccc(C)c(S(N)(=O)=O)c3)ncc2F)cc1 [Compound I-5, N2-(3-Aminosulfonyl-4-methylphenyl)-5-fluoro-N4-[4-(prop-2-ynylaminosulfonylmethyl)phenyl]-2,4-pyrimidinediamine]
IC50 ([2]; Homo sapiens, T-cell): 120 nM

Compound: CCS(=O)(=O)NCc1ccc(Nc2nc(Nc3ccc(C)c(S(N)(=O)=O)c3)ncc2F)cc1 [Compound I-10, N2-(3-aminosulfonyl-4-methyl)phenyl-N4-(4-ethylsulfonylaminomethyl)phenyl-5-fluoro-2,4-pyrimidinediamine]
IC50 [1]: 94 nM
IC50 [2]: 60.6 nM

Compound: CCS(=O)(=O)NCc1cccc(Nc2nc(Nc3cccc(S(N)(=O)=O)c3)ncc2F)c1 [Compound I-12, N2-(3-aminosulfonyl)phenyl-N4-(3-ethylsulfonylaminomethyl)phenyl-5-fluoro-2,4-pyrimidinediamine]
IC50 [1]: 170 nM
IC50 [2]: 158 nM

Compound: CCS(=O)(=O)NCc1cccc(Nc2nc(Nc3ccc(C)c(S(N)(=O)=O)c3)ncc2F)c1 [Compound I-13, N2-(3-aminosulfonyl-4-methyl)phenyl-N4-(3-ethylsulfonylaminomethyl)phenyl-5-fluoro-2,4-pyrimidinediamine]
IC50 [1]: 136 nM
IC50 [2]: 197 nM

Compound: CCS(=O)(=O)NCCc1ccc(Nc2nc(Nc3ccc(C)c(S(N)(=O)=O)c3)ncc2F)cc1 [Compound I-16, N2-(3-aminosulfonyl-4-methyl)phenyl-N4-[4-(2-ethylsulfonylamino)ethyl]phenyl-5-fluoro-2,4-pyrimidinediamine]
IC50 [1]: 148 nM
IC50 [2]: 536 nM

Compound: CCS(=O)(=O)NCc1ccc(Nc2nc(Nc3cccc(S(N)(=O)=O)c3)ncc2C)cc1 [Compound I-21, N2-(3-aminosulfonyl)phenyl-N4-(4-ethylsulfonylaminomethyl)phenyl-5-methyl-2,4-pyrimidinediamine]
IC50 [1]: 81.2 nM
IC50 [2]: 58.9 nM

Compound: CCS(=O)(=O)N[C@@H](C)c1ccc(Nc2nc(Nc3cccc(S(N)(=O)=O)c3)ncc2F)cc1 [Compound I-27, N2-(3-aminosulfonyl)phenyl-N4-[4-(1S-ethylsulfonylamino)ethyl]phenyl-5-fluoro-2,4-pyrimidinediamine]
IC50 [1]: 118 nM
IC50 [2]: 144 nM

Compound: CCS(=O)(=O)N[C@H](C)c1ccc(Nc2nc(Nc3cccc(S(N)(=O)=O)c3)ncc2F)cc1 [Compound I-30, N2-(3-aminosulfonyl)phenyl-N4-[4-(1R-ethylsulfonylamino)ethyl]phenyl-5-fluoro-2,4-pyrimidinediamine]
IC50 [1]: 74.3 nM
IC50 [2]: 153 nM

Compound: Cc1ccc(Nc2ncc(F)c(Nc3cccc(CNS(=O)(=O)C4CC4)c3)n2)cc1S(N)(=O)=O [Compound I-34, N2-(3-aminosulfonyl-4-methyl)phenyl-N4-(3-cyclopropylsulfonylaminomethyl)phenyl-5-fluoro-2,4-pyrimidinediamine]
IC50 [1]: 184 nM
IC50 [2]: 484 nM

Compound: Cc1ccc(Nc2ncc(F)c(Nc3ccc(CNS(=O)(=O)c4cccs4)cc3)n2)cc1S(N)(=O)=O [Compound I-37, N2-(3-aminosulfonyl-4-methyl)phenyl-5-fluoro-N4-[4-(thiophen-2-yl)sulfonylaminomethyl]phenyl-2,4-pyrimidinediamine]
IC50 [1]: 46.2 nM
IC50 [2]: 152 nM

Compound: CCS(=O)(=O)NCCc1ccc(Nc2nc(Nc3cccc(S(N)(=O)=O)c3)ncc2C)cc1 [Compound I-39, N2-(3-aminosulfonyl)phenyl-N4-[4-(2-ethylsulfonylamino)ethyl]phenyl-5-methyl-2,4-pyrimidinediamine]
IC50 [1]: 46.2 nM
IC50 [2]: 58 nM

Compound: CCS(=O)(=O)NCCc1ccc(Nc2nc(Nc3ccc(C)c(S(N)(=O)=O)c3)ncc2C)cc1 [Compound I-40, N2-(3-aminosulfonyl-4-methyl)phenyl-N4-[4-(2-ethylsulfonylamino)ethyl]phenyl-5-methyl-2,4-pyrimidinediamine]
IC50 [1]: 68.1 nM
IC50 [2]: 92.4 nM

Compound: Cc1ccc(Nc2ncc(C)c(Nc3ccc(CNS(=O)(=O)C4CC4)cc3)n2)cc1S(N)(=O)=O [Compound I-47, N2-(3-aminosulfonyl-4-methyl)phenyl-N4-(4-cyclopropylsulfonylaminomethyl)phenyl-5-methyl-2,4-pyrimidinediamine]
IC50 [1]: 28 nM
IC50 [2]: 36.2 nM

Compound: NS(=O)(=O)c1ccc(Nc2ncc(F)c(Nc3ccc(CNS(=O)(=O)CC(F)(F)F)cc3)n2)cc1 [Compound I-48, N2-(4-aminosulfonyl)phenyl-5-fluoro-N4-(4-trifluoroethylsulfonylaminomethyl)phenyl-2,4-pyrimidinediamine]
IC50 [1]: 263 nM
IC50 [2]: 758 nM

Compound: NS(=O)(=O)c1cccc(Nc2ncc(F)c(Nc3ccc(CNS(=O)(=O)CC(F)(F)F)cc3)n2)c1 [Compound I-49, N2-(3-aminosulfonyl)phenyl-5-fluoro-N4-(4-trifluoroethylsulfonylaminomethyl)phenyl-2,4-pyrimidinediamine]
IC50 [1]: 46.8 nM
IC50 [2]: 38.3 nM

Compound: Cc1ccc(Nc2ncc(F)c(Nc3ccc(CNS(=O)(=O)CC(F)(F)F)cc3)n2)cc1S(N)(=O)=O [Compound I-50, N2-(3-aminosulfonyl-4-methyl)phenyl-5-fluoro-N4-(4-trifluoroethylsulfonylaminomethyl)phenyl-2,4-pyrimidinediamine]
IC50 [1]: 34.3 nM
IC50 [2]: 62.7 nM

Compound: Cc1cnc(Nc2cccc(S(N)(=O)=O)c2)nc1Nc1cccc(CNS(=O)(=O)C2CC2)c1 [Compound I-51, N2-(3-aminosulfonyl)phenyl-N4-(3-cyclopropylsulfonylaminomethyl)phenyl-5-methyl-2,4-pyrimidinediamine]
IC50 [1]: 62.2 nM
IC50 [2]: 29.7 nM

Compound: Cc1ccc(Nc2ncc(C)c(Nc3cccc(CNS(=O)(=O)C4CC4)c3)n2)cc1S(N)(=O)=O [Compound I-52, N2-(3-aminosulfonyl-4-methyl)phenyl-N4-(3-cyclopropylsulfonylaminomethyl)phenyl-5-methyl-2,4-pyrimidinediamine]
IC50 [1]: 68.5 nM
IC50 [2]: 66.2 nM

Compound: Cc1cnc(Nc2cccc(S(N)(=O)=O)c2)nc1Nc1ccc(CCNS(=O)(=O)C2CC2)cc1 [Compound I-54, N2-(3-aminosulfonyl)phenyl-N4-[4-(2-cyclopropylsulfonylamino)ethyl]phenyl-5-methyl-2,4-pyrimidinediamine]
IC50 [1]: 94.3 nM
IC50 [2]: 47 nM

Compound: Cc1ccc(Nc2ncc(C)c(Nc3ccc(CCNS(=O)(=O)C4CC4)cc3)n2)cc1S(N)(=O)=O [Compound I-55, N2-(3-aminosulfonyl-4-methyl)phenyl-N4-[4-(2-cyclopropylsulfonylamino)ethyl]phenyl-5-methyl-2,4-pyrimidinediamine]
IC50 [1]: 78.8 nM
IC50 [2]: 84.5 nM

Compound: Cc1ccc(Nc2ncc(F)c(Nc3ccc(CNS(=O)(=O)C(C)C)cc3)n2)cc1S(N)(=O)=O [Compound I-67, N2-(3-aminosulfonyl-4-methyl)phenyl-5-fluoro-N4-(4-isopropylsulfonylaminomethyl)phenyl-2,4-pyrimidinediamine]
IC50 [1]: 82.4 nM
IC50 [2]: 84.5 nM

Compound: NS(=O)(=O)c1ccc(Nc2ncc(F)c(Nc3ccc(CNS(=O)(=O)C4CCCC4)cc3)n2)cc1 [Compound I-68, N2-(4-aminosulfonyl)phenyl-N4-(4-cyclopentylsulfonylaminomethyl)phenyl-5-fluoro-2,4-pyrimidinediamine]
IC50 [1]: 94 nM
IC50 [2]: 102 nM

Compound: NS(=O)(=O)c1cccc(Nc2ncc(F)c(Nc3ccc(CNS(=O)(=O)C4CCCC4)cc3)n2)c1 [Compound I-69, N2-(3-aminosulfonyl)phenyl-N4-(4-cyclopentylsulfonylaminomethyl)phenyl-5-fluoro-2,4-pyrimidinediamine]
IC50 [1]: 51.5 nM
IC50 [2]: 50 nM

Compound: Cc1ccc(Nc2ncc(F)c(Nc3ccc(CNS(=O)(=O)C4CCCC4)cc3)n2)cc1S(N)(=O)=O [Compound I-70, N2-(3-aminosulfonyl-4-methyl)phenyl-N4-(4-cyclopentylsulfonylaminomethyl)phenyl-5-fluoro-2,4-pyrimidinediamine]
IC50 [1]: 43 nM
IC50 [2]: 150 nM

Compound: NS(=O)(=O)c1ccc(Nc2ncc(F)c(Nc3ccc(CNS(=O)(=O)C4CCCCC4)cc3)n2)cc1 [Compound I-71, N2-(4-aminosulfonyl)phenyl-N4-(4-cyclohexylsulfonylaminomethyl)phenyl-5-fluoro-2,4-pyrimidinediamine]
IC50 [1]: 120 nM
IC50 [2]: 132 nM

Compound: NS(=O)(=O)c1cccc(Nc2ncc(F)c(Nc3ccc(CNS(=O)(=O)C4CCCCC4)cc3)n2)c1 [Compound I-72, N2-(3-aminosulfonyl)phenyl-N4-(4-cyclohexylsulfonylaminomethyl)phenyl-5-fluoro-2,4-pyrimidinediamine]
IC50 [1]: 56.9 nM
IC50 [2]: 25.1 nM

Compound: Cc1ccc(Nc2ncc(F)c(Nc3ccc(CNS(=O)(=O)C4CCCCC4)cc3)n2)cc1S(N)(=O)=O [Compound I-73, N2-(3-aminosulfonyl-4-methyl)phenyl-N4-(4-cyclohexylsulfonylaminomethyl)phenyl-5-fluoro-2,4-pyrimidinediamine]
IC50 [1]: 89.9 nM
IC50 [2]: 71 nM

Compound: CCCN(Cc1ccc(Nc2nc(Nc3cccc(S(N)(=O)=O)c3)ncc2C)cc1)S(=O)(=O)C1CC1 [Compound I-80, N2-(3-aminosulfonyl)phenyl-N4-[4-(N-cyclopropylsulfonyl-N-propylamino)methyl]phenyl-5-methyl-2,4-pyrimidinediamine]
IC50 [1]: 37.1 nM
IC50 [2]: 46.3 nM
